# Measurements reported in US20090118286A1, “Heterobicyclic Acrylamides” (Bayer Cropscience AG, priority 2005, published 2009).
# Like-named read-outs stand apart in the source and are kept apart here.
# Legend:
# [1] = log P determination by HPLC (EEC Directive 79/831 Annex V.A8, gradient method); format: physicochemical; details: HPLC, gradient method, acetonitrile/0.1% strength aqueous phosphoric acid or formic acid
# [2] = system: larvae of the mustard beetle (Phaedon cochleariae); experiment: Phaedon test, PHAECO spray treatment; format: in vivo; details: foliar, 168 h, 500 g a. i./ha, spray treatment of Chinese cabbage leaf discs, 7 d, read-out: % 7 d (effect in %, beetle larvae killed)
# Experimental: (§1) [table] To produce a suitable preparation of active compound, 1 part by weight of active compound is mixed with the stated amounts of solvents and emulsifier, and the concentrate is diluted with emulsifier-containing water to the desired concentration. Discs of Chinese cabbage leaves (Brassica pekinensis) are sprayed with a preparation of active compound of the desired concentration and, after drying, populated with larvae of the mustard beetle (Phaedon cochleariae). After the desired period of time, the effect in % is determined. 100% means that all beetle larvae have been killed; 0% means that none of the beetle larvae have been killed.
# [3] = system: caterpillars of the army worm (Spodoptera frugiperda); experiment: Spodoptera frugiperda test, SPODFR spray treatment; format: in vivo; details: foliar, 168 h, 500 g a. i./ha, spray treatment of maize leaf discs, 7 d, read-out: % 7 d (effect in %, caterpillars killed)
# Experimental: as §1, with “maize” for “Chinese cabbage”, “(Zea mays)” for “(Brassica pekinensis)”, “caterpillars” for “larvae”, “army worm (Spodoptera frugiperda).” for “mustard beetle (Phaedon cochleariae).”, “caterpillars” for “beetle larvae”
Structure (SMILES),chromatographic logP ([1]; read-out: Physical data (logP)),pest or weed control at 500 g/ha [2] [%],pest or weed control at 500 g/ha [3] [%],chromatographic logP ([1]; read-out: Physical data: log P),chromatographic logP ([1]; read-out: Physical data: logP)
O=C(/C=C/c1c(-c2cccc(Cl)c2)nc2sc(C(F)(F)F)nn12)N1CCOCC1 [Example 0142],3.31,100,,,
CC(C)NC(=O)/C=C/c1c(-c2ccccc2Cl)nc2sc(C(F)(F)F)nn12 [Example 0148],3.13,83,100,,
O=C(/C=C/c1c(-c2ccccc2Cl)nc2sc(C(F)(F)F)nn12)NC1CC1 [Example 0152],2.88,100,,,
O=C(/C=C/c1c(-c2ccccc2Cl)nc2sc(C(F)(F)F)nn12)NCC1CC1 [Example 0166],3.26,100,,,
O=C(/C=C/c1c(-c2ccccc2Cl)nc2sc(C(F)(F)F)nn12)Nc1ccc(F)cc1 [Example 0201],4.08,,100,,
CC(NC(=O)/C=C/c1c(-c2ccccc2Cl)nc2sc(C(F)(F)F)nn12)c1ccccn1 (stereo not drawn) [Example 0203],2.39,83,100,,
CCC(CC)NC(=O)/C=C/c1c(-c2ccccc2Cl)nc2sc(C(F)(F)F)nn12 [Example 0215],3.72,,100,,
O=C(/C=C/c1c(-c2ccccc2Cl)nc2sc(C(F)(F)F)nn12)N1CCOCC1 [Example 0223],,,100,2.79,
Cc1ccccc1-c1nc2sc(C(F)(F)F)nn2c1/C=C/C(=O)NC(C)C [Example 0229],,,100,3.24,
CCC(C)NC(=O)/C=C/c1c(-c2ccccc2C)nc2sc(C(F)(F)F)nn12 (stereo not drawn) [Example 0238],,,100,3.59,
CCCC(C)NC(=O)/C=C/c1c(-c2ccccc2C)nc2sc(C(F)(F)F)nn12 (stereo not drawn) [Example 0239],,,100,3.94,
Cc1ccccc1-c1nc2sc(C(F)(F)F)nn2c1/C=C/C(=O)NC(C)C(C)C (stereo not drawn) [Example 0245],,,83,3.9,
Cc1ccccc1-c1nc2sc(C(F)(F)F)nn2c1/C=C/C(=O)NC(C)C(F)(F)F (stereo not drawn) [Example 0246],,,100,3.76,
Cc1ccccc1-c1nc2sc(C(F)(F)F)nn2c1/C=C/C(=O)NC(C)c1ccccn1 (stereo not drawn) [Example 0274],,,100,2.45,
CCC(CC)NC(=O)/C=C/c1c(-c2ccccc2C)nc2sc(C(F)(F)F)nn12 [Example 0286],,,100,3.85,
CC(C)NC(=O)/C=C/c1c(-c2ccc(F)cc2)nc2sc(C(F)(F)F)nn12 [Example 0300],,,100,3.24,
CC(NC(=O)/C=C/c1c(-c2ccc(F)cc2)nc2sc(C(F)(F)F)nn12)C(F)(F)F (stereo not drawn) [Example 0317],,,100,3.72,
CC(NC(=O)/C=C/c1c(-c2cccc(C(F)(F)F)c2)nc2sc(C(F)(F)F)nn12)c1ccccn1 (stereo not drawn) [Example 0416],,100,,3.03,
CC(C)NC(=O)/C=C/c1c(-c2ccccc2F)nc2sc(C(F)(F)F)nn12 [Example 0442],,,100,2.96,
CCC(C)NC(=O)/C=C/c1c(-c2ccccc2F)nc2sc(C(F)(F)F)nn12 (stereo not drawn) [Example 0451],,,100,3.33,
CCCC(C)NC(=O)/C=C/c1c(-c2ccccc2F)nc2sc(C(F)(F)F)nn12 (stereo not drawn) [Example 0452],,,100,3.68,
CC(NC(=O)/C=C/c1c(-c2ccccc2F)nc2sc(C(F)(F)F)nn12)C(F)(F)F (stereo not drawn) [Example 0459],,,100,3.55,
CCC(CC)NC(=O)/C=C/c1c(-c2ccccc2F)nc2sc(C(F)(F)F)nn12 [Example 0499],,,83,3.59,
CC(C)NC(=O)/C=C/c1c(-c2ccc(Cl)cc2Cl)nc2sc(C(F)(F)F)nn12 [Example 0513],,,100,3.69,
CC(C)(C)NC(=O)/C=C/c1c(-c2ccc(Cl)cc2Cl)nc2sc(C(F)(F)F)nn12 [Example 0515],,,100,4.32,
CC(NC(=O)/C=C/c1c(-c2ccc(Cl)cc2Cl)nc2sc(C(F)(F)F)nn12)C(F)(F)F (stereo not drawn) [Example 0527],,,100,4.23,

Structure (SMILES),chromatographic logP ([1]; read-out: Physical data (logP)),pest or weed control at 500 g/ha [2] [%],pest or weed control at 500 g/ha [3] [%],chromatographic logP ([1]; read-out: Physical data: log P),chromatographic logP ([1]; read-out: Physical data: logP)
O=C(/C=C/c1c(-c2ccc(Cl)cc2Cl)nc2sc(C(F)(F)F)nn12)Nc1ccc(F)cc1 [Example 0553],,,100,4.63,
CCN(CC)C(=O)/C=C/c1c(-c2ccc(Cl)cc2Cl)nc2sc(C(F)(F)F)nn12 [Example 0573],,,100,4.18,
CC(C)NC(=O)/C=C/c1c(-c2ccc(F)cc2Cl)nc2sc(C(F)(F)F)nn12 [Example 0581],,,100,3.32,
CC(C)(C)NC(=O)/C=C/c1c(-c2ccc(F)cc2Cl)nc2sc(C(F)(F)F)nn12 [Example 0583],,,100,3.89,
O=C(/C=C/c1c(-c2ccc(F)cc2Cl)nc2sc(C(F)(F)F)nn12)NC1CC1 [Example 0585],,100,100,3.03,
CCCC(C)NC(=O)/C=C/c1c(-c2ccc(F)cc2Cl)nc2sc(C(F)(F)F)nn12 (stereo not drawn) [Example 0591],,,100,4.02,
COCC(C)NC(=O)/C=C/c1c(-c2ccc(F)cc2Cl)nc2sc(C(F)(F)F)nn12 (stereo not drawn) [Example 0592],,,100,3.11,
CC(C)C(C)NC(=O)/C=C/c1c(-c2ccc(F)cc2Cl)nc2sc(C(F)(F)F)nn12 (stereo not drawn) [Example 0597],,,100,3.9,
CC(NC(=O)/C=C/c1c(-c2ccc(F)cc2Cl)nc2sc(C(F)(F)F)nn12)C(F)(F)F (stereo not drawn) [Example 0598],,100,100,3.79,
CC(C)C(NC(=O)/C=C/c1c(-c2ccc(F)cc2Cl)nc2sc(C(F)(F)F)nn12)C(F)(F)F (stereo not drawn) [Example 0599],,,100,4.37,
O=C(/C=C/c1c(-c2ccc(F)cc2Cl)nc2sc(C(F)(F)F)nn12)NCC(F)(F)F [Example 0603],,,100,3.51,
O=C(/C=C/c1c(-c2ccc(F)cc2Cl)nc2sc(C(F)(F)F)nn12)NCCC(F)(F)F [Example 0604],,,100,3.51,
C[C@@H](NC(=O)/C=C/c1c(-c2ccc(F)cc2Cl)nc2sc(C(F)(F)F)nn12)C(F)(F)F [Example 0608],,,100,3.77,
O=C(/C=C/c1c(-c2ccc(F)cc2Cl)nc2sc(C(F)(F)F)nn12)NCC(F)(F)C(F)(F)F [Example 0610],,,100,3.97,
O=C(/C=C/c1c(-c2ccc(F)cc2Cl)nc2sc(C(F)(F)F)nn12)Nc1ccc(F)cc1 [Example 0624],,,100,4.17,
CCC(CC)NC(=O)/C=C/c1c(-c2ccc(F)cc2Cl)nc2sc(C(F)(F)F)nn12 [Example 0638],,,100,,3.89
COc1ccc(-c2nc3sc(C(F)(F)F)nn3c2/C=C/C(=O)NC(C)(C)C)cc1OC [Example 0654],,100,,,3.37
CC(NC(=O)/C=C/c1c(-c2cc(Cl)ccc2Cl)nc2sc(C(F)(F)F)nn12)C(F)(F)F (stereo not drawn) [Example 0729],,100,,,
CCC(C)NC(=O)/C=C/c1c(-c2ccccc2Cl)nc2sc(C(F)(F)Cl)nn12 (stereo not drawn) [Example 0733],,,100,,3.67
CC(C)C(C)NC(=O)/C=C/c1c(-c2ccccc2Cl)nc2sc(C(F)(F)Cl)nn12 (stereo not drawn) [Example 0740],,,100,,3.97
CC(NC(=O)/C=C/c1c(-c2ccccc2Cl)nc2sc(C(F)(F)Cl)nn12)C(F)(F)F (stereo not drawn) [Example 0741],,,100,,3.8
O=C(/C=C/c1c(-c2ccccc2Cl)nc2sc(C(F)(F)Cl)nn12)Nc1ccc(F)cc1 [Example 0767],,,100,,4.19
CCC(CC)NC(=O)/C=C/c1c(-c2ccccc2Cl)nc2sc(C(F)(F)Cl)nn12 [Example 0781],,,100,,3.95
CC(NC(=O)/C=C/c1c(-c2cc(Cl)ccc2Cl)nc2sc(C(F)(F)F)nn12)C(F)(F)F (stereo not drawn) [Example 0792],,,100,,4.13
CC(NC(=O)/C=C/c1c(-c2ccc(Cl)c(Cl)c2)nc2sc(C(F)(F)F)nn12)c1ccccn1 (stereo not drawn) [Example 0793],,100,,,3.26
